Measurements from patent US20140107316A1, “DRUG DELIVERY CONJUGATES CONTAINING UNNATURAL AMINO ACIDS AND METHODS FOR USING” (priority 2012, published 2014).

Assays:
[1] = tested on: collagen-induced arthritis; assay: Collagen-Induced Arthritis (CIA) Model; format: in vivo, female Lewis rats; conditions: ten consecutive subcutaneous doses days 10-19; 500 nmol/kg induction, 100 nmol/kg maintenance
Method: Collagen-Induced Arthritis (CIA) Model. The collagen-induced arthritis (CIA) was induced in female Lewis rats on folate-deficient diet (Harlan Teklad, Indianapolis, Ind.). On Day 0, rats were immunized with 500 μg of bovine collagen Type II (Chondrex, Redmond, Wash.) formulated with Freund's complete adjuvant. A booster immunization was given on Day 7 with 250 μg of the bovine collagen formulated with Freund's incomplete adjuvant. Arthritis disease was assessed by a qualitative clinical score system described by the manufacturer (Chondrex, Redmond, Wash.): 0=normal, 1=Mild, but definite redness and swelling of the ankle or wrist, or apparent redness and swelling limited to individual digits, regardless of the number of affected digits, 2=Moderate redness and swelling of ankle of wrist, 3=Severe redness and swelling of the entire paw including digits, and 4=Maximally inflamed limb with involvement of multiple joints. On Day 10 post first immunization, rats were distributed evenly (according to the arthritis score) across the control and treatment groups. The CIA rats were given ten consecutive subcutaneous doses of EC0746 and methotrexate on days 10-19. For both drugs, an induction dose (500 nmol/kg) was given on days 10 and 15 and a maintenance dose (100 nmol/kg) was given on days 11-14 and 16-19. […] The arthritis score and animal body weight were recorded five times a week.

KB tumors = assay: KB tumor assay in nu/nu mice; conditions: for CR (%) / Cures (%) / PR (%) / Toxicity Avg. Weight Loss / Toxicity Deaths (%): TIW, 2 weeks
Method: Inhibition of Tumor Growth in Mice. Four to seven week-old mice (Balb/c or nu/nu strains) were purchased from Harlan Sprague Dawley, Inc. (Indianapolis, Ind.). Normal rodent chow contains a high concentration of folic acid (6 mg/kg chow); accordingly, mice used were maintained on the folate-free diet (Harlan diet #TD00434) for 1 week before tumor implantation to achieve serum folate concentrations close to the range of normal human serum. For tumor cell inoculation, 1×10^6 M109 cells (Balb/c strain) or 1×10^6 KB cells (nu/nu strain) in 100 μL were injected in the subcutis of the dorsal medial area. Tumors were measured in two perpendicular directions every 2-3 days using a caliper, and their volumes were calculated as 0.5×L×W^2, where L=measurement of longest axis in mm and W=measurement of axis perpendicular to L in mm. […] Dosing solutions were prepared fresh each day in PBS and administered through the lateral tail vein of the mice.
General KB Tumor Assay. The anti-tumor activity of the compounds described herein, when administered intravenously (i.v.) to tumor-bearing animals, was evaluated in nu/nu mice bearing subcutaneous KB tumors. Approximately 8 days post tumor inoculation in the subcutis of the right axilla with 1×10^6 KB cells (average tumor volume at to=50-100 mm^3), in mice (5/group) were injected i.v. three times a week (TIW), for 3 weeks with […] of the drug delivery conjugate or with an equivalent dose volume of PBS (control), unless otherwise indicated. Tumor growth was measured using calipers at 2-day or 3-day intervals in each treatment group. Tumor volumes were calculated using the equation V=a×b^2/2, where “a” is the length of the tumor and “b” is the width expressed in millimeters.
Toxicity as Measured by Weight Loss. The percentage weight change of the mice was determined in mice (5 mice/group) on selected days post-tumor inoculation (PTI), and graphed.
In vivo activity against tumors.

cells in culture = assay: Cytotoxicity to cells in culture; format: cell-based; conditions: read-out: typical IC50, cells in culture
[2] = Plasma stability / drug release after dosing in rats; format: in vivo; conditions: after a AC dose in rats
Description: EC1496 releases ca. 50% less drug than the comparative example EC0746 after a AC dose in rats.

[3] = 1.0 μmol/kg (2 doses), only 2 doses due to toxicity

Q: Which “effect on collagen-induced arthritis (arthritis score)” value [1] does the source give for CCCC(=O)OCN(C(=O)[C@@H](NC(=O)[C@H]1CCCCN1C)C(C)CC)[C@H](C[C@H](OC(C)=O)c1nc(C(=O)N[C@H](Cc2ccc(O)cc2)C[C@H](C)C(=O)NNC(=O)OCCSSC[C@H](NC(=O)[C@H](CCC(=O)NC[C@H](O)[C@@H](O)[C@H](O)[C@H](O)CO)NC(=O)[C@H](CCC(=O)O)NC(=O)[C@H](CCC(=O)NC[C@H](O)[C@@H](O)[C@H](O)[C@H](O)CO)NC(=O)[C@H](CCC(=O)O)NC(=O)[C@H](CCC(=O)NC[C@H](O)[C@@H](O)[C@H](O)[C@H](O)CO)NC(=O)CC[C@H](NC(=O)c2ccc(NCc3cnc4nc(N)[nH]c(=O)c4n3)cc2)C(=O)O)C(=O)O)cs1)C(C)C (stereo partly shown) [EC0746] here?
A: effective

Q: Which results are given for CCCC(=O)OCN(C(=O)[C@@H](NC(=O)[C@H]1CCCCN1C)C(C)CC)[C@H](C[C@@H](OC(C)=O)c1nc(C(=O)N[C@@H](Cc2ccc(O)cc2)C[C@H](C)C(=O)NN)cs1)C(C)C (stereo partly shown) [TubBH, tubulysin B hydrazide]?
A: CR (%) (KB tumors; 0.5 μmol/kg): 0%; Cures (%) (KB tumors; 0.5 μmol/kg): 0%; PR (%) (KB tumors; 0.5 μmol/kg): 0%; Toxicity Avg. Weight Loss (KB tumors; 0.5 μmol/kg): <5.5%; Toxicity Deaths (%) (KB tumors; 0.5 μmol/kg): 0%; CR (%) (KB tumors; 0.75 μmol/kg): 0%; Cures (%) (KB tumors; 0.75 μmol/kg): 0%; PR (%) (KB tumors; 0.75 μmol/kg): 0%; Toxicity Avg. Weight Loss (KB tumors; 0.75 μmol/kg): >10%; Toxicity Deaths (%) (KB tumors; 0.75 μmol/kg): 20%; CR (%) (KB tumors; [3]): 0%; Cures (%) (KB tumors; [3]): 0%; PR (%) (KB tumors; [3]): 0%; Toxicity Avg. Weight Loss (KB tumors; [3]): >15%; Toxicity Deaths (%) (KB tumors; [3]): 20%; toxicity in relation to anti-tumor effect in mice (KB tumors; mouse, in vivo): dose-limiting toxicities in mice at levels that did not produce measurable anti-tumor effect; IC50 (cells in culture): ~1 nM

Q: Which “less drug released than comparative example EC0746” value [2] does the source give for N=c1[nH]c(N)nc2ncc(CNc3ccc(C(=O)N[C@@H](CCC(=O)NNC(=O)OCCSSC[C@@H](NC(=O)[C@H](CCC(=O)NC[C@H](O)[C@@H](O)[C@H](O)[C@H](O)CO)NC(=O)[C@@H](CCC(=O)O)NC(=O)[C@H](CCC(=O)NC[C@H](O)[C@@H](O)[C@H](O)[C@H](O)CO)NC(=O)[C@@H](CCC(=O)O)NC(=O)[C@H](CCC(=O)NC[C@H](O)[C@@H](O)[C@H](O)[C@H](O)CO)NC(=O)CC[C@@H](NC(=O)c4ccc(NCc5cnc6nc(N)[nH]c(=O)c6n5)cc4)C(=O)O)C(=O)O)C(=O)O)cc3)nc12 [EC1496] here?
A: ca. 50%
